Reference: PubChem BioAssay AID330 (DTP/NCI, 2004)
Values joined by “and” are separate entries in the source; they are usually repeats but may differ in a detail not shown here. Identical values can stand only once. Toxic doses and inconclusive results are not listed. How the source made its calls: active means survival T/C of 150% or more; inactive means T/C below 125% in these data.

System: P388 leukemia ip, CD2F1 mice, survival T/C
Assay: NCI In Vivo Anticancer Drug Screen. Data for tumor model P388 Leukemia (intraperitoneal) in CD2F1 (CDF1) mice
Conditions: endpoint: median survival time, higher = longer survival
How it was run: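 Mice carrying the transplanted tumor received test compound or vehicle. Survival was recorded in each group, and the value is the treated-group measurement divided by that of the vehicle-treated control group.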

[1] = dose: 50.0 mg/kg/injection, schedule: Q01DX009 (ip), vehicle: saline
[2] = dose: 100.0 mg/kg/injection, schedule: Q01DX001 (ip), vehicle: Klucel (hydroxypropylcellulose) (HPC)
[3] = dose: 200.0 mg/kg/injection, schedule: Q01DX001 (ip), vehicle: Klucel (hydroxypropylcellulose) (HPC)
[4] = dose: 50.0 mg/kg/injection, schedule: Q01DX009 (ip), vehicle: saline with Tween-80
[5] = dose: 100.0 mg/kg/injection, schedule: Q01DX009 (ip), vehicle: saline with Tween-80
[6] = dose: 200.0 mg/kg/injection, schedule: Q01DX009 (ip), vehicle: saline with Tween-80
[7] = dose: 50.0 mg/kg/injection, schedule: Q01DX005 (ip), vehicle: saline with Tween-80

Measured: T/C

COc1cc(C2SCC(=O)N2c2nncs2)c([N+](=O)[O-])cc1OC (configuration not stated)
inactive: dose: 50.0 mg/kg/injection, schedule: Q01DX005 (ip), vehicle: Klucel (hydroxypropylcellulose) (HPC) 91 % of control | dose: 100.0 mg/kg/injection, schedule: Q01DX005 (ip), vehicle: Klucel (hydroxypropylcellulose) (HPC) 91 % of control | dose: 200.0 mg/kg/injection, schedule: Q01DX005 (ip), vehicle: Klucel (hydroxypropylcellulose) (HPC) 89 % of control

O=C(O)c1c[nH]c2cc(OCCOc3ccccc3)ccc2c1=O
inactive: [1] 107 % of control | dose: 100.0 mg/kg/injection, schedule: Q01DX009 (ip), vehicle: saline 107 % of control | dose: 200.0 mg/kg/injection, schedule: Q01DX009 (ip), vehicle: saline 100 % of control

Cc1ccc(S(=O)(=O)/N=S(\C)CCCl)cc1 (configuration not stated)
inactive: dose: 100.0 mg/kg/injection, schedule: Q04DX003 (ip), vehicle: suspension in saline 100 % of control | dose: 200.0 mg/kg/injection, schedule: Q04DX003 (ip), vehicle: suspension in saline 100 % of control | dose: 400.0 mg/kg/injection, schedule: Q04DX003 (ip), vehicle: suspension in saline 106 % of control

CCC(=O)OCc1c(Cl)nc2n1CCS2
inactive: [2] 100 % of control | [3] 100 % of control

O=C(O)CC(NC(=O)OCc1ccccc1)C(=O)OCc1ccccc1 (configuration not stated)
inactive: [4] 100 % of control | [5] 104 % of control | [6] 104 % of control

CC1=CC(=O)NC1O (configuration not stated)
inactive: dose: 2.5 mg/kg/injection, schedule: Q01DX010 (ip), vehicle: saline 104 % of control | dose: 5.0 mg/kg/injection, schedule: Q01DX010 (ip), vehicle: saline 95 % of control | dose: 10.0 mg/kg/injection, schedule: Q01DX010 (ip), vehicle: saline 90 % of control | dose: 15.0 mg/kg/injection, schedule: Q01DX010 (ip), vehicle: saline 95 % of control | dose: 23.0 mg/kg/injection, schedule: Q01DX009 (ip), vehicle: saline 95 % of control | dose: 35.0 mg/kg/injection, schedule: Q01DX009 (ip), vehicle: saline 86 % of control | [1] 104 % of control

Cc1cc(N(C)C)c2ccc(N(C)C)cc2n1
inactive: dose: 12.5 mg/kg/injection, schedule: Q01DX005 (ip), vehicle: saline with Tween-80 97 % of control | dose: 25.0 mg/kg/injection, schedule: Q01DX005 (ip), vehicle: saline with Tween-80 98 % of control | [7] 99 % of control and 104 % of control

CC(=O)C(C)(NCc1ccccc1)c1ccccc1 (configuration not stated)
inactive: dose: 50.0 mg/kg/injection, schedule: Q01DX009 (ip), vehicle: Klucel (hydroxypropylcellulose) (HPC) 101 % of control | dose: 100.0 mg/kg/injection, schedule: Q01DX009 (ip), vehicle: Klucel (hydroxypropylcellulose) (HPC) 108 % of control | dose: 200.0 mg/kg/injection, schedule: Q01DX009 (ip), vehicle: Klucel (hydroxypropylcellulose) (HPC) 108 % of control | dose: 400.0 mg/kg/injection, schedule: Q01DX009 (ip), vehicle: Klucel (hydroxypropylcellulose) (HPC) 90 % of control

CC(=O)Sc1ccccc1C(=O)NC1CCCCC1
inactive: [4] 114 % of control | [5] 117 % of control | [6] 114 % of control

Cn1c(=O)c2nc(-c3cccnc3)cnc2n(C)c1=O
inactive: [2] 105 % of control | [3] 105 % of control | dose: 400.0 mg/kg/injection, schedule: Q01DX001 (ip), vehicle: Klucel (hydroxypropylcellulose) (HPC) 105 % of control

O=C1c2ccccc2-n2c1nc1ccccc1c2=O
inactive: [7] 102 % of control | dose: 100.0 mg/kg/injection, schedule: Q01DX005 (ip), vehicle: saline with Tween-80 100 % of control | dose: 200.0 mg/kg/injection, schedule: Q01DX005 (ip), vehicle: saline with Tween-80 107 % of control

Cc1ccc(C(=O)Cc2nc(C#N)c(C#N)nc2CC(=O)c2ccc(C)cc2)cc1
inactive: dose: 60.0 mg/kg/injection, schedule: Q01DX005 (ip), vehicle: saline with Tween-80 112 % of control | dose: 120.0 mg/kg/injection, schedule: Q01DX005 (ip), vehicle: saline with Tween-80 120 % of control

O=C1CC2(Cl)CN3c4ccccc4C(=O)CC3(Cl)CN2c2ccccc21 (configuration not stated)
inactive: dose: 12.5 mg/kg/injection, schedule: Q04DX003 (ip), vehicle: alcohol 100 % of control and 106 % of control | dose: 25.0 mg/kg/injection, schedule: Q04DX003 (ip), vehicle: alcohol 99 % of control and 106 % of control | dose: 50.0 mg/kg/injection, schedule: Q04DX003 (ip), vehicle: alcohol 100 % of control and 108 % of control
